Patent US10745755B2, “Sestrin activators for preventing and/or attenuating skin ageing and/or hydrating the skin and/or for regulating skin pigmentation” (CHANEL PARFUMS BEAUTE, priority 2014, dated 2020)

Columns and labels:
Assay type in all cases: cell-based
SESN3 = SESN3 immunofluorescence in human skin equivalents; conditions: versus untreated control, extract last 7 days, retinol last 4 days
Protocol: (§1) Keratinocytes and fibroblasts from juvenile donors were purchased from Promocell. The dermal equivalent consists of a collagen solution containing rat tail collagen type I (BD Biosciences), 10× DMEM medium (Gibco/Invitrogen), sodium bicarbonate (Gibco/Invitrogen) and fibroblasts added into 6 well-culture inserts (BD) and placed in deep 6-well culture plates (BD). After 2 hours, of polymerisation at 37° C., dermal equivalents were equilibrated in supplemented Keratinocyte Growth Medium (KGM2 basal medium+SupplementMix, Promocell) and placed at 37° C., 5% CO2. After 24 hours, suspension of keratinocytes was added over the gel and submerged for 3 days in supplemented Keratinocyte Growth Medium. The inserts were placed at the air liquid interface in Serum-free Keratinocyte Defined Medium (SKDM: SKDM is a high Ca^2+ medium consisting of KGM2 basal medium, transferrin (Sigma), BSA (Sigma) and L-ascorbic acid (Sigma)) for 10 days. 24 hours before culture arrest, skin equivalents were irradiated, in duplicates, with 100 mJ/cm^2 UVB.
(§2) Human skin equivalents were fixed in 10% formalin before embedding in paraffin and cutting into 5 μm-thick sections. Sections were deparaffinized in xylene, rehydrated in ethanol baths, rinsed in deionised water. Antigen retrieval in 10 mM citrate buffer pH6 at 90° C. for 20 minutes was performed before blocking reaction in goat serum 3% for 1 hour. […]

Loricrin = Loricrin immunostaining in human skin equivalents; conditions: versus untreated control, extract last 7 days, retinol last 4 days
Protocol: as §1, §2

Cytokeratin 10 = Cytokeratin 10 immunostaining in human skin equivalents; conditions: versus untreated control, retinol last 4 days
Protocol: as §1, §2

CC1=C(/C=C/C(C)=C/C=C/C(C)=C/CO)C(C)(C)CCC1 [retinol]
decreased: SESN3 staining intensity (SESN3) | Loricrin immunostaining (Loricrin) | Cytokeratin 10 immunostaining (Cytokeratin 10)
